Reference: patent publication US10710978B2, “STK4 inhibitors for treatment of hematologic malignancies” (Dana-Farber Cancer Institute, Inc., priority 2015, dated 2020)
Where two headings read alike, the source gives them in different places.

Experiments:
Experiment in all cases: KiNativ assay
Format in all cases: binding
PEK = PEK (Homo sapiens (Human), UniProt Q9NZJ5); conditions: H929 live cell
Method: (§1) Biochemical IC50s of the compounds of the present disclosure against various kinases were measured in a KiNativ assay. Compounds were screened in duplicate at 10 μM in H929 live cell. IC50 was measured via Mass spectroscopy (MS).

MSK2 domain1 = MSK2 domain1 (Homo sapiens (Human), UniProt O75676); conditions: H929 live cell
Method: as §1

FRAP = FRAP (Homo sapiens (Human), UniProt P42345); conditions: H929 live cell
Method: as §1

MARK4 = MARK4 (Homo sapiens (Human), UniProt Q96L34); conditions: H929 live cell
Method: as §1

CK1g2 = CK1g2 (Homo sapiens (Human), UniProt P78368); conditions: H929 live cell
Method: as §1

MAP2K7 = MAP2K7 (Homo sapiens (Human), UniProt O14733); conditions: H929 live cell
Sequence of MAP2K7 (O14733 whole entry): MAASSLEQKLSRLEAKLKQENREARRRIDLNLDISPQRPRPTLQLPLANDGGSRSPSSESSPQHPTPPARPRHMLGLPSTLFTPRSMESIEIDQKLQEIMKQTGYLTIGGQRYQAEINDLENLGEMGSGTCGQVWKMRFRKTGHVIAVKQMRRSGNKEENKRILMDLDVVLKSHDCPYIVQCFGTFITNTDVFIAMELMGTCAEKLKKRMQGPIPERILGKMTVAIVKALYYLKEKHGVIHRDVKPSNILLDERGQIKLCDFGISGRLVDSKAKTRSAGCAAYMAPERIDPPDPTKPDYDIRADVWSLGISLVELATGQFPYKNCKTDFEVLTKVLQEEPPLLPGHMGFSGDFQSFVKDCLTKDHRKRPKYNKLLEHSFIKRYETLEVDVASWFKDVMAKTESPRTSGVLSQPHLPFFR
Method: as §1

STLK3 = STLK3 (Homo sapiens (Human), UniProt Q9UEW8); conditions: H929 live cell
Method: as §1

eEF2K = eEF2K (Homo sapiens (Human), UniProt O00418); conditions: H929 live cell
Method: as §1

SRPK1 = SRPK1 (Homo sapiens (Human), UniProt Q96SB4); conditions: H929 live cell
Sequence of SRPK1 (Q96SB4 whole entry): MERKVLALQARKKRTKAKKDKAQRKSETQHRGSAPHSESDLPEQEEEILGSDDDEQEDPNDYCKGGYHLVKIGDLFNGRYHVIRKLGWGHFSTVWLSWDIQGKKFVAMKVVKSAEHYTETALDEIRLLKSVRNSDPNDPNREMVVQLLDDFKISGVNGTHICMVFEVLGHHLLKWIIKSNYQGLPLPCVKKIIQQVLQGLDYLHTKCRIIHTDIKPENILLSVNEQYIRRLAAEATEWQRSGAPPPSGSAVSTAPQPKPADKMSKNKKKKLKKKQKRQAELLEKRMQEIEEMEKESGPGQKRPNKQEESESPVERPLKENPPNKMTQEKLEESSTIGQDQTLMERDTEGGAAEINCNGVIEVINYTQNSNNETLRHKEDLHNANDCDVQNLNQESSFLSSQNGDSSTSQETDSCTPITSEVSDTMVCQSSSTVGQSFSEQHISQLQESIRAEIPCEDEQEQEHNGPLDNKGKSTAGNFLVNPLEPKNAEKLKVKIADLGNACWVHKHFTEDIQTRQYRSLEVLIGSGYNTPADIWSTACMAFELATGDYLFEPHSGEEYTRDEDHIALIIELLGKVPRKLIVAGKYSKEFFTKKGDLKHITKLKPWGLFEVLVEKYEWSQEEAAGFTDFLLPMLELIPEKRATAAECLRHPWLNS
Method: as §1

MST2 = MST2 (Homo sapiens (Human), UniProt Q13188); conditions: H929 live cell
Sequence of MST2 (Q13188 whole entry): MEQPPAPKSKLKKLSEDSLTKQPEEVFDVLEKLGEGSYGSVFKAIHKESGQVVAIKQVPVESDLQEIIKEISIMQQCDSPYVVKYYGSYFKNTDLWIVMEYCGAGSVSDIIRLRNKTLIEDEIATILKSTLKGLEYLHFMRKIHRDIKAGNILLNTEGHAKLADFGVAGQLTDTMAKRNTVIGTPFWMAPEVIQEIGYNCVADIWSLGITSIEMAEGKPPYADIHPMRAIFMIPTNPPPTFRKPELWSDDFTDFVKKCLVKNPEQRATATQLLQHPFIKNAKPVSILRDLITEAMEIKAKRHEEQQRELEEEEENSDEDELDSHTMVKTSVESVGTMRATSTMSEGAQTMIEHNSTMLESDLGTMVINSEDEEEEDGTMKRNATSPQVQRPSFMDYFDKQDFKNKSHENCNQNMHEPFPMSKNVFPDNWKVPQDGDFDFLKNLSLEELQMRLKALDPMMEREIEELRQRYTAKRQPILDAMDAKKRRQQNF
Method: as §1

MST4, YSK1 = conditions: H929 live cell
Method: as §1

RSK1 domain2 = RSK1 domain2 (Homo sapiens (Human), UniProt Q15418); conditions: H929 live cell
Method: as §1

MST1, MST2 = conditions: H929 live cell
Method: as §1

PFTAIRE1 = PFTAIRE1 (Homo sapiens (Human), UniProt O94921); conditions: H929 live cell
Method: as §1

MAP2K1 = MAP2K1 (Homo sapiens (Human), UniProt Q02750); conditions: H929 live cell
Sequence of MAP2K1 (Q02750 whole entry): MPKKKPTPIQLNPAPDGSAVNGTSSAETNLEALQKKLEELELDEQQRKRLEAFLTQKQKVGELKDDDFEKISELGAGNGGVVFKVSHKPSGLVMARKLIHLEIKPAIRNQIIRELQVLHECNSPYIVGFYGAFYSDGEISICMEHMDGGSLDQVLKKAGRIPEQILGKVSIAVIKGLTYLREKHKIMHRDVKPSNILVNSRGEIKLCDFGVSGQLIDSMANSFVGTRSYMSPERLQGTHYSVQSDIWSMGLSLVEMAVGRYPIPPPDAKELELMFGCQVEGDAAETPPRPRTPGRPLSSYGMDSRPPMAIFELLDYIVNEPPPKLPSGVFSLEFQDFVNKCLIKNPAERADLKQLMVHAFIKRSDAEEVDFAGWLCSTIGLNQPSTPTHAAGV
Method: as §1

GSK3B = GSK3B (Homo sapiens (Human), UniProt P49841); conditions: H929 live cell
Method: as §1

AKT1 = AKT1 (Homo sapiens (Human), UniProt P31749); conditions: H929 live cell
Sequence of AKT1 (P31749 whole entry): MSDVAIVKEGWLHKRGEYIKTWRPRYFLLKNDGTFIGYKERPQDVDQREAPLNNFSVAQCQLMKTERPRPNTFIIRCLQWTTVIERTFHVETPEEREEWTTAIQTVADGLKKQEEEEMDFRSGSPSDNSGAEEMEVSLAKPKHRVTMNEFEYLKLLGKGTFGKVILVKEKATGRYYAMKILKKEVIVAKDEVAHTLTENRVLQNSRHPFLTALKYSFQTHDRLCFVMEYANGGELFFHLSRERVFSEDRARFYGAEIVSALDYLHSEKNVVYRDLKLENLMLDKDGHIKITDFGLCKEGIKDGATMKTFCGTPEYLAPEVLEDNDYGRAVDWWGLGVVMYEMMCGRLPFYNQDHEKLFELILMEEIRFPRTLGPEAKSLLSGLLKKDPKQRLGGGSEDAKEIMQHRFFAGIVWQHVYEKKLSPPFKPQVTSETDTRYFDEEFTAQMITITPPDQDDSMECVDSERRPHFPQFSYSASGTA
Method: as §1

PRP4 = PRP4 (Homo sapiens (Human), UniProt Q13523); conditions: H929 live cell
Method: as §1

NDR1 = NDR1 (Homo sapiens (Human), UniProt Q15208); conditions: H929 live cell
Sequence of NDR1 (Q15208 whole entry): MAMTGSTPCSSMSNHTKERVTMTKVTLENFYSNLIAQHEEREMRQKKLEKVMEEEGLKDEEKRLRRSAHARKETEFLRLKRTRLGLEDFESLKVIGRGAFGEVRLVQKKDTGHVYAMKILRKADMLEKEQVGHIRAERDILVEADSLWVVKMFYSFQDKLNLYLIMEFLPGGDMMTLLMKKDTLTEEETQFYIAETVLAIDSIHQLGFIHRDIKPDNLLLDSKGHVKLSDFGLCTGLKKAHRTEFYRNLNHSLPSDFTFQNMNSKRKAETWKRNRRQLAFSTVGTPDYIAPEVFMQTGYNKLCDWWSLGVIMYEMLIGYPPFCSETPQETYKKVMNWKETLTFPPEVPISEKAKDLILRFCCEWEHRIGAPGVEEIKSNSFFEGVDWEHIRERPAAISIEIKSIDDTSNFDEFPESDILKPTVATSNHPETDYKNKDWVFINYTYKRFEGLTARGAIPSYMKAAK
Method: as §1

PIK3CG = PIK3CG (Homo sapiens (Human), UniProt P48736); conditions: H929 live cell
Sequence of PIK3CG (P48736 whole entry): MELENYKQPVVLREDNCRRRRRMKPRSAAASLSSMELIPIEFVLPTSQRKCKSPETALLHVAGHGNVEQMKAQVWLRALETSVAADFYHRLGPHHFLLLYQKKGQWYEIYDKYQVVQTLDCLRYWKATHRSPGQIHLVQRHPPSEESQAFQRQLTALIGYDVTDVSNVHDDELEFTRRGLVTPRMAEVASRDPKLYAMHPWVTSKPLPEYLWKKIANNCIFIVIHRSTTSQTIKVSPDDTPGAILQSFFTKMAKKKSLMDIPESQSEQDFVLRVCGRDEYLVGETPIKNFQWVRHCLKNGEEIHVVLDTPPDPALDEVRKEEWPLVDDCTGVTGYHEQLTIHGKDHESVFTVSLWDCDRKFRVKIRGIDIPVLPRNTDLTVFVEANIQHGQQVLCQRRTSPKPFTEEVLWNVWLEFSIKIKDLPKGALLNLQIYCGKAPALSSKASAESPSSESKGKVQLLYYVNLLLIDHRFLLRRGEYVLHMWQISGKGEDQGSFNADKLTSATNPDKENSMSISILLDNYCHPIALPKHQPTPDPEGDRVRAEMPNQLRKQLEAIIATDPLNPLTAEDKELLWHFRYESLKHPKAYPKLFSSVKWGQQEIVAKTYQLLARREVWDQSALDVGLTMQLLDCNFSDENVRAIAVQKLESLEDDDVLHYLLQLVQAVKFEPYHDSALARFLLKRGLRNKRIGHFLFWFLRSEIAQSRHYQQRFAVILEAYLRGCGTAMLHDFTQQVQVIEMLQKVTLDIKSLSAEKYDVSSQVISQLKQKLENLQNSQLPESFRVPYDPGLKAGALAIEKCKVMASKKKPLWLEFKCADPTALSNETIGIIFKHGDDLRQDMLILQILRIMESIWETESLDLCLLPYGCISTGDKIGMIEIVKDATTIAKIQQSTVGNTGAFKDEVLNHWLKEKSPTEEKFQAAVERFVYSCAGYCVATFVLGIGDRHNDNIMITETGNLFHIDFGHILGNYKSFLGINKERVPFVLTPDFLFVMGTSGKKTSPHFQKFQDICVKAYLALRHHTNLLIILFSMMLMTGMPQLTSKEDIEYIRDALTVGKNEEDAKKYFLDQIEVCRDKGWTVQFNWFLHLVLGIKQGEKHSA
Method: as §1

PI4KA, PI4KAP2 = conditions: H929 live cell
Method: as §1

PIK3C3 = PIK3C3 (Homo sapiens (Human), UniProt Q8NEB9); conditions: H929 live cell, read-out: inhibition (10 μM)
Method: as §1

CaMK2d = CaMK2d (Homo sapiens (Human), UniProt Q13557); conditions: H929 live cell
Method: as §1

CDC2 = CDC2 (Homo sapiens (Human), UniProt P06493); conditions: H929 live cell
Sequence of CDC2 (P06493 whole entry): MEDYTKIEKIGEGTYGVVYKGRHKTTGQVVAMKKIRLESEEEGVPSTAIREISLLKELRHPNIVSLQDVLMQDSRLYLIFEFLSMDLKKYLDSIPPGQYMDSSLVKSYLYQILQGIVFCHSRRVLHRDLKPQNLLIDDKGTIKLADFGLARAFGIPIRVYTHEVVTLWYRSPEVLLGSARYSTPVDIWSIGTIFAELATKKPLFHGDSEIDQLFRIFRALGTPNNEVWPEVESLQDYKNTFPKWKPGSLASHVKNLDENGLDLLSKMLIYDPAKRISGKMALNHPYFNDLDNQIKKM
Method: as §1

JNK1, JNK2, JNK3 = conditions: H929 live cell
Method: as §1

CDK5 = CDK5 (Homo sapiens (Human), UniProt Q00535); conditions: H929 live cell
Method: as §1

GCN2 domain2 = GCN2 domain2 (Homo sapiens (Human), UniProt Q9P2K8); conditions: H929 live cell
Method: as §1

MST3 = MST3 (Homo sapiens (Human), UniProt Q9Y6E0); conditions: H929 live cell
Sequence of MST3 (Q9Y6E0 whole entry): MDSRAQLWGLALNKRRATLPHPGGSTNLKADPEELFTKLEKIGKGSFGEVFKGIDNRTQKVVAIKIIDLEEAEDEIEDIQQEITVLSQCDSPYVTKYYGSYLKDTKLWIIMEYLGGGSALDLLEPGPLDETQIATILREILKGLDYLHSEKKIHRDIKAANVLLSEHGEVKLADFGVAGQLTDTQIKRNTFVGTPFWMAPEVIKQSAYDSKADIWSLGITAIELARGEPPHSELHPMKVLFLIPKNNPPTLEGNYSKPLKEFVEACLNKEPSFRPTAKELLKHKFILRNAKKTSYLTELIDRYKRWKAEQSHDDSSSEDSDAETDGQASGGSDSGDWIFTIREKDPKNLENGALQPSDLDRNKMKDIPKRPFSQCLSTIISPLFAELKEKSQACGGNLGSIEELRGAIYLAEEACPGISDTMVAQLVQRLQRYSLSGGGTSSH
Method: as §1

ACK = ACK (Homo sapiens (Human), UniProt Q07912); conditions: H929 live cell
Method: as §1

NEK6, NEK7 = conditions: H929 live cell
Method: as §1

DGKH = DGKH (Homo sapiens (Human), UniProt Q86XP1); conditions: H929 live cell, read-out: inhibition (10 μM)
Method: as §1

Erk2 = Erk2 (Homo sapiens (Human), UniProt P28482); conditions: H929 live cell
Method: as §1

MAP2K5 = MAP2K5 (Homo sapiens (Human), UniProt Q13163); conditions: H929 live cell
Method: as §1

Structure (SMILES): Nc1ncc(-c2cccc([N+](=O)[O-])c2F)cc1-c1ccc2c(c1)CCNC2=O [Compound I-9, 6-(2-amino-5-(2-fluoro-3-nitrophenyl)pyridin-3-yl)-3,4-dihydroisoquinolin-1(2H)-one]
- inhibition at 10 µM (PEK; read-out: % inhibition (range)): > 100%
- inhibition at 10 µM (PEK; read-out: inhibition (10 μM)): -100%
- inhibition at 10 µM (MSK2 domain1; read-out: % inhibition (range)): 0%
- inhibition at 10 µM (MSK2 domain1; read-out: inhibition (10 μM)): -36.5%
- inhibition at 10 µM (FRAP; read-out: % inhibition (range)): 50 to 75%
- inhibition at 10 µM (FRAP; read-out: inhibition (10 μM)): 72.7%
- inhibition at 10 µM (MARK4; read-out: % inhibition (range)): 75 to 90%
- inhibition at 10 µM (MARK4; read-out: inhibition (10 μM)): > 75%
- inhibition at 10 µM (CK1g2; read-out: % inhibition (range)): > 90%
- inhibition at 10 µM (CK1g2; read-out: inhibition (10 μM)): > 90%
- inhibition at 10 µM (MAP2K7; read-out: % inhibition (range)): 0%
- inhibition at 10 µM (MAP2K7; read-out: inhibition (10 μM)): 14.6%
- inhibition at 10 µM (STLK3; read-out: % inhibition (range)): 0%
- inhibition at 10 µM (STLK3; read-out: inhibition (10 μM)): -22.9%
- inhibition at 10 µM (eEF2K; read-out: % inhibition (range)): 0%
- inhibition at 10 µM (eEF2K; read-out: inhibition (10 μM)): -94.7%
- inhibition at 10 µM (SRPK1; read-out: % inhibition (range)): 0%
- inhibition at 10 µM (SRPK1; read-out: inhibition (10 μM)): 32.8%
- inhibition at 10 µM (MST2; read-out: % inhibition (range)): 75 to 90%
- inhibition at 10 µM (MST2; read-out: inhibition (10 μM)): 88.9%
- % inhibition (range) (MST4, YSK1; 10 μM): 0.0%
- inhibition (10 μM) (MST4, YSK1): 33.0%
- inhibition at 10 µM (RSK1 domain2; read-out: % inhibition (range)): 0%
- inhibition at 10 µM (RSK1 domain2; read-out: inhibition (10 μM)): 1%
- % inhibition (range) (MST1, MST2; 10 μM): >90%
- inhibition (10 μM) (MST1, MST2): 99.0%
- inhibition at 10 µM (PFTAIRE1; read-out: % inhibition (range)): 50 to 75%
- inhibition at 10 µM (PFTAIRE1; read-out: inhibition (10 μM)): 74.6%
- inhibition at 10 µM (MAP2K1; read-out: % inhibition (range)): 0%
- inhibition at 10 µM (MAP2K1; read-out: inhibition (10 μM)): -55.8%
- inhibition at 10 µM (GSK3B; read-out: % inhibition (range)): > 90%
- inhibition at 10 µM (GSK3B; read-out: inhibition (10 μM)): 97.2%
- inhibition at 10 µM (AKT1; read-out: % inhibition (range)): 0%
- inhibition at 10 µM (AKT1; read-out: inhibition (10 μM)): 32.8%
- inhibition at 10 µM (PRP4; read-out: % inhibition (range)): 50 to 75%
- inhibition at 10 µM (PRP4; read-out: inhibition (10 μM)): 70.2%
- inhibition at 10 µM (NDR1; read-out: % inhibition (range)): 0%
- inhibition at 10 µM (NDR1; read-out: inhibition (10 μM)): 3.5%
- inhibition at 10 µM (PIK3CG; read-out: % inhibition (range)): 0%
- inhibition at 10 µM (PIK3CG; read-out: inhibition (10 μM)): 16.3%
- % inhibition (range) (PI4KA, PI4KAP2; 10 μM): 0.0%
- inhibition (10 μM) (PI4KA, PI4KAP2): −5.5%
- inhibition at 10 µM (PIK3C3): 51.2%
- inhibition at 10 µM (CaMK2d; read-out: % inhibition (range)): 0%
- inhibition at 10 µM (CaMK2d; read-out: inhibition (10 μM)): -5.7%
- inhibition at 10 µM (CDC2; read-out: % inhibition (range)): 0%
- inhibition at 10 µM (CDC2; read-out: inhibition (10 μM)): -24.7%
- % inhibition (range) (JNK1, JNK2, JNK3; 10 μM): 0.0%
- inhibition (10 μM) (JNK1, JNK2, JNK3): −24.2%
- inhibition at 10 µM (CDK5; read-out: % inhibition (range)): 75 to 90%
- inhibition at 10 µM (CDK5; read-out: inhibition (10 μM)): 78.7%
- inhibition at 10 µM (GCN2 domain2; read-out: % inhibition (range)): 0%
- inhibition at 10 µM (GCN2 domain2; read-out: inhibition (10 μM)): 15.5%
- inhibition at 10 µM (MST3; read-out: % inhibition (range)): 35 to 50%
- inhibition at 10 µM (MST3; read-out: inhibition (10 μM)): 40.4%
- inhibition at 10 µM (ACK; read-out: % inhibition (range)): 0%
- inhibition at 10 µM (ACK; read-out: inhibition (10 μM)): -17.3%
- % inhibition (range) (NEK6, NEK7; 10 μM): 0.0%
- inhibition (10 μM) (NEK6, NEK7): −35.7%
- inhibition at 10 µM (DGKH): 44.2%
- inhibition at 10 µM (Erk2; read-out: % inhibition (range)): 50 to 75%
- inhibition at 10 µM (Erk2; read-out: inhibition (10 μM)): 60.2%
- inhibition at 10 µM (MAP2K5; read-out: % inhibition (range)): 75 to 90%
- inhibition at 10 µM (MAP2K5; read-out: inhibition (10 μM)): 75.2%
